The values that follow come from US20100204265A1 (priority 2009, published 2010).

pEC50: −log10 of the molar value. Some results are limits rather than exact numbers.

For the assay, the system named is ET (Huh-lucubineo-ET) cell line harboring I389luc-ubi-neo/NS3-3′/ET HCV replicon. The assay can be described thus: Replicon assay (HCV replicon, luciferase readout). Particulars: Hepatitis C virus. The class given is cell-based. The method in brief:
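Compounds at 10-point 2-fold dilutions (overall 0.1 nM to […], 0.5% DMSO) were applied to ET cells carrying a luciferase-neo HCV replicon, seeded a day earlier. After 48-72 hours, luciferase-based % inhibition was fitted with a Hill equation for EC50, and parallel WST-1 readings gave TC50.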
For orientation: pEC50 means −log10 of the EC50, conventionally taken in molar units. The molecule `CSCCC(NC(=O)c1cn2cc(-c3ccoc3)cc(C(F)(F)F)c2n1)C(=O)O` (stereo not drawn) [Compound 266, 2-[(6-Furan-3-yl-8-trifluoromethyl-imidazo[1,2-a]pyridine-2-carbonyl)-amino]-4-methylsulfanyl-butyric acid] gave a pEC50 of less than 4.30.

Molecule `O=C(NC(CO)C(=O)O)c1cn2cc(-c3ccoc3)cc(C(F)(F)F)c2n1` (stereo not drawn) [Compound 267, 2-[(6-Furan-3-yl-8-trifluoromethyl-imidazo[1,2-a]pyridine-2-carbonyl)-amino]-3-hydroxy-propionic acid] had a pEC50 of less than 4.30.

As for `O=C(c1nc2c(C(F)(F)F)cc(-c3ccoc3)cn2c1Cl)N1CCC(S(=O)(=O)c2ccccc2)CC1` [Compound 268, (4-Benzenesulfonyl-piperidin-1-yl)-(3-chloro-6-furan-3-yl-8-trifluoromethyl-imidazo[1,2-a]pyridin-2-yl)-methanone], the pEC50 is less than 4.30.

With `CC(O)C(NC(=O)c1cn2cc(-c3ccoc3)cc(C(F)(F)F)c2n1)C(=O)O` (stereo not drawn) [Compound 269, 2-[(6-Furan-3-yl-8-trifluoromethyl-imidazo[1,2-a]pyridine-2-carbonyl)-amino]-3-hydroxy-butyric acid], the pEC50 was less than 4.30.

Molecule `CC(C)CC(NC(=O)c1cn2cc(-c3ccoc3)cc(C(F)(F)F)c2n1)C(=O)O` (stereo not drawn) [Compound 270, 2-[(6-Furan-3-yl-8-trifluoromethyl-imidazo[1,2-a]pyridine-2-carbonyl)-amino]-4-methyl-pentanoic acid] gave a pEC50 of less than 4.30.

Molecule `O=C(NC(C(=O)O)c1ccccc1)c1cn2cc(-c3ccoc3)cc(C(F)(F)F)c2n1` (stereo not drawn) [Compound 271, [(6-Furan-3-yl-8-trifluoromethyl-imidazo[1,2-a]pyridine-2-carbonyl)-amino]-phenyl-acetic acid] had a pEC50 of less than 4.30.

Molecule `CC(C)C(NC(=O)c1cn2cc(-c3ccoc3)cc(C(F)(F)F)c2n1)C(=O)O` (stereo not drawn) [Compound 272, 2-[(6-Furan-3-yl-8-trifluoromethyl-imidazo[1,2-a]pyridine-2-carbonyl)-amino]-3-methyl-butyric acid] showed a pEC50 of less than 4.30.

Molecule `CC(C)(C)C(NC(=O)c1cn2cc(-c3ccoc3)cc(C(F)(F)F)c2n1)C(=O)O` (stereo not drawn) [Compound 273, 2-[(6-Furan-3-yl-8-trifluoromethyl-imidazo[1,2-a]pyridine-2-carbonyl)-amino]-3,3-dimethyl-butyric acid] had a pEC50 of less than 4.30.

In turn, `O=C(Cc1cccs1)NCCc1cn2cc(-c3ccoc3)cc(C(F)(F)F)c2n1` [Compound 274, N-[2-(6-Furan-3-yl-8-trifluoromethyl-imidazo[1,2-a]pyridin-2-yl)-ethyl]-2-thiophen-2-yl-acetamide] gave a negative logarithm of the EC50 (pEC50) of less than 4.30.

On to `O=C(NCCc1cn2cc(-c3ccoc3)cc(C(F)(F)F)c2n1)C1CC1` [Compound 275, Cyclopropanecarboxylic acid [2-(6-furan-3-yl-8-trifluoromethyl-imidazo[1,2-a]pyridin-2-yl)-ethyl]-amide], for which the negative-log EC50 (pEC50) is less than 4.30.

Take `COC(=O)CCNC(=O)c1cn2cc(-c3ccoc3)cc(C(F)(F)F)c2n1` [Compound 276, 3-[(6-Furan-3-yl-8-trifluoromethyl-imidazo[1,2-a]pyridine-2-carbonyl)-amino]-propionic acid methyl ester]: the negative-log EC50 (pEC50) is less than 4.30.

On to `CC(NC(=O)c1cn2cc(-c3ccoc3)cc(C(F)(F)F)c2n1)C(N)=O` (stereo not drawn) [Compound 277, 6-Furan-3-yl-8-trifluoromethyl-imidazo[1,2-a]pyridine-2-carboxylic acid (1-carbamoyl-ethyl)-amide], for which the pEC50 is less than 4.30.

Molecule `CC(C)C(NC(=O)c1cn2cc(-c3ccoc3)cc(C(F)(F)F)c2n1)C(N)=O` (stereo not drawn) [Compound 278, 6-Furan-3-yl-8-trifluoromethyl-imidazo[1,2-a]pyridine-2-carboxylic acid (1-carbamoyl-2-methyl-propyl)-amide] showed a pEC50 of less than 4.30.

`NC(=O)C(CO)NC(=O)c1cn2cc(-c3ccoc3)cc(C(F)(F)F)c2n1` (stereo not drawn) [Compound 279, 6-Furan-3-yl-8-trifluoromethyl-imidazo[1,2-a]pyridine-2-carboxylic acid (1-carbamoyl-2-hydroxy-ethyl)-amide]: the pEC50 was less than 4.30.

Molecule `NC(=O)C1CCCN1C(=O)c1cn2cc(-c3ccoc3)cc(C(F)(F)F)c2n1` (stereo not drawn) [Compound 280, 1-(6-Furan-3-yl-8-trifluoromethyl-imidazo[1,2-a]pyridine-2-carbonyl)-pyrrolidine-2-carboxylic acid amide] showed a pEC50 of less than 4.30.

`CN(C)C(=O)C1CCCN1C(=O)c1cn2cc(-c3ccoc3)cc(C(F)(F)F)c2n1` (stereo not drawn) [Compound 281, 1-(6-Furan-3-yl-8-trifluoromethyl-imidazo[1,2-a]pyridine-2-carbonyl)-pyrrolidine-2-carboxylic acid dimethylamide] had a pEC50 of less than 4.30.

`CC(O)C(NC(=O)c1cn2cc(-c3ccoc3)cc(C(F)(F)F)c2n1)C(N)=O` (stereo not drawn) [Compound 282, 6-Furan-3-yl-8-trifluoromethyl-imidazo[1,2-a]pyridine-2-carboxylic acid (1-carbamoyl-2-hydroxy-propyl)-amide] had a pEC50 of less than 4.30.

Molecule `O=C(NCCc1cn2cc(-c3ccoc3)cc(C(F)(F)F)c2n1)Nc1ccccc1` [Compound 283, 1-[2-(6-Furan-3-yl-8-trifluoromethyl-imidazo[1,2-a]pyridin-2-yl)-ethyl]-3-phenyl-urea] had a pEC50 of less than 4.30.

Consider `CC(=O)N1CCCC1C(=O)NCc1cn2cc(-c3ccoc3)cc(C(F)(F)F)c2n1` (stereo not drawn) [Compound 284, 1-Acetyl-pyrrolidine-2-carboxylic acid (6-furan-3-yl-8-trifluoromethyl-imidazo[1,2-a]pyridin-2-ylmethyl)-amide], for which the pEC50 was less than 4.30.

Regarding `O=C(O)CCNC(=O)c1cn2cc(-c3ccoc3)cc(C(F)(F)F)c2n1` [Compound 285, 3-[(6-Furan-3-yl-8-trifluoromethyl-imidazo[1,2-a]pyridine-2-carbonyl)-amino]-propionic acid], the negative logarithm of the EC50 (pEC50) was less than 4.30.

Molecule `O=C(NC(Cc1ccccc1)C(=O)O)c1cn2cc(-c3ccoc3)cc(C(F)(F)F)c2n1` (stereo not drawn) [Compound 286, 2-[(6-Furan-3-yl-8-trifluoromethyl-imidazo[1,2-a]pyridine-2-carbonyl)-amino]-3-phenyl-propionic acid] had a pEC50 of less than 4.30.

`CSCCC(NC(C)=O)C(=O)NCc1cn2cc(-c3ccoc3)cc(C(F)(F)F)c2n1` (stereo not drawn) [Compound 287, 2-Acetylamino-N-(6-furan-3-yl-8-trifluoromethyl-imidazo[1,2-a]pyridin-2-ylmethyl)-4-methylsulfanyl-butyramide] showed a pEC50 of less than 4.30.

`CC(=O)N[C@H](C(=O)NCc1cn2cc(-c3ccoc3)cc(C(F)(F)F)c2n1)C(C)C` [Compound 288, 2-Acetylamino-N-(6-furan-3-yl-8-trifluoromethyl-imidazo[1,2-a]pyridin-2-ylmethyl)-3-methyl-butyramide] had a negative-log EC50 (pEC50) of less than 4.30.

In turn, `CC(=O)NC(C(=O)NCc1cn2cc(-c3ccoc3)cc(C(F)(F)F)c2n1)C(C)O` (stereo not drawn) [Compound 289, 2-Acetylamino-N-(6-furan-3-yl-8-trifluoromethyl-imidazo[1,2-a]pyridin-2-ylmethyl)-3-hydroxy-butyramide] gave a negative logarithm of the EC50 (pEC50) of less than 4.30.

Molecule `COC(=O)CNC(=O)Cc1cn2cc(-c3ccoc3)cc(C(F)(F)F)c2n1` [Compound 290, [2-(6-Furan-3-yl-8-trifluoromethyl-imidazo[1,2-a]pyridin-2-yl)-acetylamino]-acetic acid methyl ester] showed a pEC50 of less than 4.30.

In turn, `COC(=O)C(CCSC)NC(=O)Cc1cn2cc(-c3ccoc3)cc(C(F)(F)F)c2n1` (stereo not drawn) [Compound 291, 2-[2-(6-Furan-3-yl-8-trifluoromethyl-imidazo[1,2-a]pyridin-2-yl)-acetylamino]-4-methylsulfanyl-butyric acid methyl ester] showed a pEC50 of less than 4.30.

For `COC(=O)C(CO)NC(=O)Cc1cn2cc(-c3ccoc3)cc(C(F)(F)F)c2n1` (stereo not drawn) [Compound 292, 2-[2-(6-Furan-3-yl-8-trifluoromethyl-imidazo[1,2-a]pyridin-2-yl)-acetylamino]-3-hydroxy-propionic acid methyl ester], the negative logarithm of the EC50 (pEC50) was less than 4.30.

With `COC(=O)C(Cc1cnc[nH]1)NC(=O)Cc1cn2cc(-c3ccoc3)cc(C(F)(F)F)c2n1` (stereo not drawn) [Compound 293, 2-[2-(6-Furan-3-yl-8-trifluoromethyl-imidazo[1,2-a]pyridin-2-yl)-acetylamino]-3-(3H-imidazol-4-yl)-propionic acid methyl ester], the negative logarithm of the EC50 (pEC50) is less than 4.30.

Take `COC(=O)CCNC(=O)Cc1cn2cc(-c3ccoc3)cc(C(F)(F)F)c2n1` [Compound 295, 3-[2-(6-Furan-3-yl-8-trifluoromethyl-imidazo[1,2-a]pyridin-2-yl)-acetylamino]-propionic acid methyl ester]: the negative-log EC50 (pEC50) was less than 4.30.

`CC(NC(=O)Cc1cn2cc(-c3ccoc3)cc(C(F)(F)F)c2n1)C(N)=O` (stereo not drawn) [Compound 296, 2-[2-(6-Furan-3-yl-8-trifluoromethyl-imidazo[1,2-a]pyridin-2-yl)-acetylamino]-propionamide]: the negative-log EC50 (pEC50) is less than 4.30.

As for `CC(C)[C@H](NC(=O)Cc1cn2cc(-c3ccoc3)cc(C(F)(F)F)c2n1)C(N)=O` [Compound 297, 2-[2-(6-Furan-3-yl-8-trifluoromethyl-imidazol[1,2-a]pyridin-2-yl)-acetylamino]-3-methyl-butyramide], the pEC50 is less than 4.30.

As to `CC(O)[C@H](NC(=O)Cc1cn2cc(-c3ccoc3)cc(C(F)(F)F)c2n1)C(N)=O` (stereo partly drawn) [Compound 299, 2-[2-(6-Furan-3-yl-8-trifluoromethyl-imidazo[1,2-a]pyridin-2-yl)-acetylamino]-3-hydroxy-butyramide], the negative-log EC50 (pEC50) is less than 4.30.

With `NC(=O)CNC(=O)Cc1cn2cc(-c3ccoc3)cc(C(F)(F)F)c2n1` [Compound 300, N-Carbamoylmethyl-2-(6-furan-3-yl-8-trifluoromethyl-imidazo[1,2-a]pyridin-2-yl)-acetamide], the pEC50 is less than 4.30.
